Laboratory results published in PubChem BioAssay AID330 (DTP/NCI, 2004).
Values joined by “and” are separate entries in the source; they are usually repeats but may differ in a detail not shown here. Equal entries are not always repeated. Toxic doses and inconclusive results are not listed. Rule for the calls: active = survival T/C of 150% or more; inactive = T/C below 125% in these data.

System: P388 leukemia ip, CD2F1 mice, survival T/C
Assay: NCI In Vivo Anticancer Drug Screen. Data for tumor model P388 Leukemia (intraperitoneal) in CD2F1 (CDF1) mice
Settings: endpoint: median survival time, higher = longer survival
Summary of the method: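 Mice carrying the transplanted tumor received test compound or vehicle. Survival was recorded in each group, and the value is the treated-group measurement divided by that of the vehicle-treated control group.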

[1] = dose: 60.0 mg/kg/injection, schedule: Q01DX005 (ip), vehicle: saline with Tween-80
[2] = dose: 120.0 mg/kg/injection, schedule: Q01DX005 (ip), vehicle: saline with Tween-80
[3] = dose: 240.0 mg/kg/injection, schedule: Q01DX005 (ip), vehicle: saline with Tween-80
[4] = dose: 100.0 mg/kg/injection, schedule: Q01DX009 (ip), vehicle: saline with Tween-80
[5] = dose: 100.0 mg/kg/injection, schedule: Q04DX003 (ip), vehicle: saline
[6] = dose: 200.0 mg/kg/injection, schedule: Q04DX003 (ip), vehicle: saline
[7] = dose: 400.0 mg/kg/injection, schedule: Q04DX003 (ip), vehicle: saline
[8] = dose: 50.0 mg/kg/injection, schedule: Q01DX005 (ip), vehicle: saline with Tween-80
[9] = dose: 100.0 mg/kg/injection, schedule: Q01DX005 (ip), vehicle: saline with Tween-80
[10] = dose: 200.0 mg/kg/injection, schedule: Q01DX005 (ip), vehicle: saline with Tween-80
[11] = dose: 50.0 mg/kg/injection, schedule: Q01DX009 (ip), vehicle: saline with Tween-80
[12] = dose: 50.0 mg/kg/injection, schedule: Q01DX009 (ip), vehicle: Klucel (hydroxypropylcellulose) (HPC)
[13] = dose: 100.0 mg/kg/injection, schedule: Q01DX009 (ip), vehicle: Klucel (hydroxypropylcellulose) (HPC)

Measured: T/C

O=C(Cc1nc2cc(Cl)c(Cl)cc2nc1CC(=O)c1ccccc1)c1ccccc1
inactive: [1] 102 % of control | [2] 94 % of control | [3] 96 % of control

CCCCOC(=O)c1ccc(NC(=O)Nc2ccccc2OC)cc1
inactive: dose: 25.0 mg/kg/injection, schedule: Q04DX003 (ip), vehicle: saline with Tween-80 91 % of control | dose: 50.0 mg/kg/injection, schedule: Q04DX003 (ip), vehicle: saline with Tween-80 87 % of control

Cc1coc2c1C(=O)C(=O)c1c-2ccc2c1CCCC2(C)CO (stereo not drawn) (tested in a mixture with another compound)
inactive: [4] 95 % of control | dose: 400.0 mg/kg/injection, schedule: Q01DX009 (ip), vehicle: saline with Tween-80 90 % of control

COc1cc2c(cc1-c1coc3cc(OCC=C(C)C)ccc3c1=O)OCO2
inactive: dose: 9.0 mg/kg/injection, schedule: Q01DX005 (ip), vehicle: Klucel (hydroxypropylcellulose) (HPC) 96 % of control | dose: 18.0 mg/kg/injection, schedule: Q01DX005 (ip), vehicle: Klucel (hydroxypropylcellulose) (HPC) 94 % of control | dose: 36.0 mg/kg/injection, schedule: Q01DX005 (ip), vehicle: Klucel (hydroxypropylcellulose) (HPC) 87 % of control | dose: 72.0 mg/kg/injection, schedule: Q01DX005 (ip), vehicle: Klucel (hydroxypropylcellulose) (HPC) 92 % of control

CCOC(=O)c1cnc(Sc2ccc([N+](=O)[O-])cc2[N+](=O)[O-])nc1N
inactive: [5] 93 % of control | [6] 100 % of control | [7] 98 % of control

O=C(O)C(Cc1cccs1)NC(=O)C(F)(F)F (stereo not drawn)
inactive: dose: 50.0 mg/kg/injection, schedule: Q01DX009 (ip), vehicle: saline + alcohol 99 % of control | dose: 100.0 mg/kg/injection, schedule: Q01DX009 (ip), vehicle: saline + alcohol 93 % of control | dose: 200.0 mg/kg/injection, schedule: Q01DX009 (ip), vehicle: saline + alcohol 92 % of control

C=CC1CC[N-]CC1.[Cl][Cu][Cl]
inactive: dose: 7.5 mg/kg/injection, schedule: Q01DX005 (ip), vehicle: saline 98 % of control | dose: 15.0 mg/kg/injection, schedule: Q01DX005 (ip), vehicle: saline 100 % of control

CCC(CC)C(Nc1nncs1)Nc1nncs1
inactive: [8] 90 % of control | [9] 112 % of control | [10] 116 % of control

NNc1cnc2ccccc2n1
inactive: dose: 1.88 mg/kg/injection, schedule: Q01DX009 (ip), vehicle: suspension in saline 93 % of control | dose: 18.8 mg/kg/injection, schedule: Q04DX003 (ip), vehicle: saline 101 % of control and 106 % of control | dose: 37.5 mg/kg/injection, schedule: Q01DX009 (ip), vehicle: suspension in saline 95 % of control | dose: 37.5 mg/kg/injection, schedule: Q04DX003 (ip), vehicle: saline 100 % of control and 103 % of control | dose: 75.0 mg/kg/injection, schedule: Q01DX009 (ip), vehicle: suspension in saline 90 % of control | dose: 75.0 mg/kg/injection, schedule: Q04DX003 (ip), vehicle: saline 100 % of control and 107 % of control

NCCCn1[nH]c(=O)c2cnccc2c1=O
inactive: dose: 50.0 mg/kg/injection, schedule: Q01DX005 (ip), vehicle: saline 103 % of control | dose: 100.0 mg/kg/injection, schedule: Q01DX005 (ip), vehicle: saline 94 % of control | dose: 200.0 mg/kg/injection, schedule: Q01DX005 (ip), vehicle: saline 101 % of control

CC1C(=O)N(c2ccccc2)c2nc3ccccc3nc21 (stereo not drawn)
inactive: [5] 88 % of control | [6] 97 % of control | [7] 111 % of control

S=C(c1c(Cl)cccc1Cl)N1CN(Cc2ccc(Cl)cc2)CN(Cc2ccc(Cl)cc2)C1
inactive: [11] 99 % of control | [4] 96 % of control | dose: 200.0 mg/kg/injection, schedule: Q01DX009 (ip), vehicle: saline with Tween-80 108 % of control

C=C1C(=O)OC2/C=C(\C)C(OC(C)=O)C/C=C(\C)CC(OC(=O)/C(=C/CO)CO)C12 (stereo not drawn)
inactive: dose: 100.0 mg/kg/injection, schedule: Q01DX001 (ip), vehicle: Klucel (hydroxypropylcellulose) (HPC) 99 % of control | dose: 200.0 mg/kg/injection, schedule: Q01DX001 (ip), vehicle: Klucel (hydroxypropylcellulose) (HPC) 99 % of control | dose: 400.0 mg/kg/injection, schedule: Q01DX001 (ip), vehicle: Klucel (hydroxypropylcellulose) (HPC) 123 % of control

Nc1ncnc2ccccc12
inactive: dose: 12.5 mg/kg/injection, schedule: Q01DX009 (ip), vehicle: Klucel (hydroxypropylcellulose) (HPC) 107 % of control | dose: 25.0 mg/kg/injection, schedule: Q01DX009 (ip), vehicle: Klucel (hydroxypropylcellulose) (HPC) 89 % of control | [12] 108 % of control and 89 % of control | [13] 108 % of control

O=C(O)CCc1cc(Br)no1
inactive: dose: 50.0 mg/kg/injection, schedule: Q01DX009 (ip), vehicle: saline 101 % of control | dose: 100.0 mg/kg/injection, schedule: Q01DX009 (ip), vehicle: saline 93 % of control | dose: 200.0 mg/kg/injection, schedule: Q01DX009 (ip), vehicle: saline 93 % of control

O=C1CSC(c2ccccc2F)N1c1ncccn1 (stereo not drawn)
inactive: dose: 12.5 mg/kg/injection, schedule: Q01DX005 (ip), vehicle: Klucel (hydroxypropylcellulose) (HPC) 105 % of control | dose: 25.0 mg/kg/injection, schedule: Q01DX005 (ip), vehicle: Klucel (hydroxypropylcellulose) (HPC) 108 % of control | dose: 50.0 mg/kg/injection, schedule: Q01DX005 (ip), vehicle: Klucel (hydroxypropylcellulose) (HPC) 108 % of control (2×) and 119 % of control | dose: 100.0 mg/kg/injection, schedule: Q01DX005 (ip), vehicle: Klucel (hydroxypropylcellulose) (HPC) 104 % of control and 109 % of control and 119 % of control | dose: 200.0 mg/kg/injection, schedule: Q01DX005 (ip), vehicle: Klucel (hydroxypropylcellulose) (HPC) 100 % of control and 109 % of control

O=C1c2ccccc2C(=O)N1CCS(=O)(=O)Cl
inactive: dose: 12.5 mg/kg/injection, schedule: Q01DX009 (ip), vehicle: saline with Tween-80 100 % of control | dose: 25.0 mg/kg/injection, schedule: Q01DX009 (ip), vehicle: saline with Tween-80 106 % of control | [11] 114 % of control | [4] 117 % of control

Cc1cc2c(c(Br)c1O)Oc1c(cc(C)c(O)c1Br)C21OC(=O)c2ccccc21
inactive: [8] 110 % of control | [9] 106 % of control | [10] 105 % of control

CCOC(=O)c1cnc2cc3c(cc2c1N=[N+]=[N-])OCO3
inactive: [1] 95 % of control | [2] 90 % of control | [3] 87 % of control

NCCCn1[nH]c(=O)c2ncccc2c1=O
inactive: [1] 110 % of control | [2] 112 % of control | [3] 102 % of control

CCOC(=O)N1C=CC(C2C=CN(C(=O)OCC)C=C2)C=C1
inactive: dose: 10.0 mg/kg/injection, schedule: Q01DX009 (ip), vehicle: saline with Tween-80 111 % of control | dose: 20.0 mg/kg/injection, schedule: Q01DX009 (ip), vehicle: saline with Tween-80 96 % of control | dose: 40.0 mg/kg/injection, schedule: Q01DX009 (ip), vehicle: saline with Tween-80 105 % of control

COB(C1CCCCC1)C1CCCCC1
inactive: dose: 50.0 mg/kg/injection, schedule: Q01DX009 (ip), vehicle: acetone 100 % of control | dose: 100.0 mg/kg/injection, schedule: Q01DX009 (ip), vehicle: acetone 105 % of control | dose: 200.0 mg/kg/injection, schedule: Q01DX009 (ip), vehicle: acetone 105 % of control

COc1cc(O)c(/C=N/NC(=S)NC23CC4CC(CC(C4)C2)C3)c(OC)c1
inactive: dose: 7.5 mg/kg/injection, schedule: Q01DX005 (ip), vehicle: saline with Tween-80 105 % of control | dose: 15.0 mg/kg/injection, schedule: Q01DX005 (ip), vehicle: saline with Tween-80 101 % of control and 103 % of control | [1] 93 % of control

Cc1cc(NS(=O)(=O)c2ccc(N=c3c4ccccc4n(Cc4ccccc4)c4ccccc34)cc2)no1
inactive: [8] 98 % of control | [9] 97 % of control | [10] 88 % of control

O=c1c(N2CCOCC2)c(N2CCOCC2)c1=O
inactive: dose: 100.0 mg/kg/injection, schedule: Q01DX001 (ip), vehicle: saline with Tween-80 100 % of control | dose: 200.0 mg/kg/injection, schedule: Q01DX001 (ip), vehicle: saline with Tween-80 95 % of control | dose: 400.0 mg/kg/injection, schedule: Q01DX001 (ip), vehicle: saline with Tween-80 90 % of control

Cc1cc(C)c(Cn2c(=O)[nH][nH]c2=O)cc1Cn1c(=O)[nH][nH]c1=O
inactive: [12] 107 % of control | [13] 100 % of control | dose: 200.0 mg/kg/injection, schedule: Q01DX009 (ip), vehicle: Klucel (hydroxypropylcellulose) (HPC) 100 % of control
